Reference: the kinase profiling compilation of Christmann-Franck et al. (2016)

Experiments:
Experiment in all cases: radiometric filter-binding kinase assay
NTRK1 (human) = NTRK1 (human) (UniProt P04629)
MARK4 (human) = MARK4 (human) (UniProt Q96L34)
TAOK1 (human) = TAOK1 (human) (UniProt Q7L7X3)
CHEK2 (human) = CHEK2 (human) (UniProt O96017)
SRC (human) = SRC (human) (UniProt P12931)
RPS6KA3 KD1 KD2 (human) = RPS6KA3 KD1 KD2 (human) (UniProt P51812)
CDK2 CCNA2 (human) = CDK2 CCNA2 (human) (UniProt P20248+P24941)
HIPK1 (human) = HIPK1 (human) (UniProt Q86Z02)
STK3 (human) = STK3 (human) (UniProt Q13188)
CLK2 (human) = CLK2 (human) (UniProt P49760)
RPS6KA5 KD1 KD2 (human) = RPS6KA5 KD1 KD2 (human) (UniProt O75582)
NUAK1 (human) = NUAK1 (human) (UniProt O60285)
PLK1 (human) = PLK1 (human) (UniProt P53350)
MST4 (human) = MST4 (human) (UniProt Q9P289)
EEF2K (human) = EEF2K (human) (UniProt O00418)
RPS6KA1 KD1 KD2 (human) = RPS6KA1 KD1 KD2 (human) (UniProt Q15418)
HIPK3 (human) = HIPK3 (human) (UniProt Q9H422)
MAP3K1 (human) = MAP3K1 (human) (UniProt Q13233)
FLT1 (human) = FLT1 (human) (UniProt P17948)
MAPK1 (human) = MAPK1 (human) (UniProt P28482)
MAP3K5 (human) = MAP3K5 (human) (UniProt Q99683)
JAK2 JH1 JH2 (human) = JAK2 JH1 JH2 (human) (UniProt O60674)
ERBB4 (human) = ERBB4 (human) (UniProt Q15303)
PRKCZ (human) = PRKCZ (human) (UniProt Q05513)
MARK3 (human) = MARK3 (human) (UniProt P27448)
GCK (human) = GCK (human) (UniProt Q12851)
PAK6 (human) = PAK6 (human) (UniProt Q9NQU5)
EPHB4 (human) = EPHB4 (human) (UniProt P54760)
DAPK1 (human) = DAPK1 (human) (UniProt P53355)
MAPK3 (human) = MAPK3 (human) (UniProt P27361)
CHEK1 (human) = CHEK1 (human) (UniProt O14757)
[1] = tested on: SGK1 (human), O00141 [S422D]
PRKCA (human) = PRKCA (human) (UniProt P17252)
AURKA (human) = AURKA (human) (UniProt O14965)
BRSK2 (human) = BRSK2 (human) (UniProt Q8IWQ3)

Sequence of NUAK1 (human) (O60285 whole entry, looked up): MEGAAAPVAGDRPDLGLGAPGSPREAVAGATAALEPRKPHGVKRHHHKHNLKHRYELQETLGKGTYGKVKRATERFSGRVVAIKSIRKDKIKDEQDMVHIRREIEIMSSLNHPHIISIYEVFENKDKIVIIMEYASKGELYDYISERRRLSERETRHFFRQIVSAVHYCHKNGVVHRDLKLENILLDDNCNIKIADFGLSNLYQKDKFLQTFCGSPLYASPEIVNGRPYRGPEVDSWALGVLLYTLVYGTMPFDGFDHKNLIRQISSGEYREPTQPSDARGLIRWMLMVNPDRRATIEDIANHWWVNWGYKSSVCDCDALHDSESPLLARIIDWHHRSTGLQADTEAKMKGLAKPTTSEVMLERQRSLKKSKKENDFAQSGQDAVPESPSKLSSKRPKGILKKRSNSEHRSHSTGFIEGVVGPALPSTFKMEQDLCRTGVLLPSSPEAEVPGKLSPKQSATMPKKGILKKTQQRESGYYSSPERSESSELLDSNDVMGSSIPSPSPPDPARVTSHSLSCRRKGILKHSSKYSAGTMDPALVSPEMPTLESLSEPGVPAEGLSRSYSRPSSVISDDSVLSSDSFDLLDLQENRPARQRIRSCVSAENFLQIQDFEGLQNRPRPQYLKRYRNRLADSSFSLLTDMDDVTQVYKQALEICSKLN
Sequence of EEF2K (human) (O00418 whole entry, looked up): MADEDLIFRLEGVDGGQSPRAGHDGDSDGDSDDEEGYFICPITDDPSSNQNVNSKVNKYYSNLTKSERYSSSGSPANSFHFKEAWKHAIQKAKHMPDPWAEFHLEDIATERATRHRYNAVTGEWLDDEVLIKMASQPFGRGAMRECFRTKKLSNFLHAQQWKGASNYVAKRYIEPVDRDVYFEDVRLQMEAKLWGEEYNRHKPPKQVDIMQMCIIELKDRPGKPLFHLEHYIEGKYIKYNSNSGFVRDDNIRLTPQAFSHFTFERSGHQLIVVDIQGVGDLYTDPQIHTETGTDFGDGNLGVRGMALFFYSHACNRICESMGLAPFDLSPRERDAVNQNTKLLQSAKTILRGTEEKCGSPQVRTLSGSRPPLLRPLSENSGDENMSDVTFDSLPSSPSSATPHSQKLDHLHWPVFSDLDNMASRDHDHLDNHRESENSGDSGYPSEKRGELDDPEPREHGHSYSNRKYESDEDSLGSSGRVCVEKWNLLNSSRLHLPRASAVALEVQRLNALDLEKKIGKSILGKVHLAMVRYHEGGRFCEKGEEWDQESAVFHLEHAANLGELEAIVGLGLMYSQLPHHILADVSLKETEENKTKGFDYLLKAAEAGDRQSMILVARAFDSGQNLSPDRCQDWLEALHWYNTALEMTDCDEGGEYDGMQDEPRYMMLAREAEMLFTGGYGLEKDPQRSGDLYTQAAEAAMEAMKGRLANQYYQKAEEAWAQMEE
Sequence of MAP3K1 (human) (Q13233 whole entry, looked up): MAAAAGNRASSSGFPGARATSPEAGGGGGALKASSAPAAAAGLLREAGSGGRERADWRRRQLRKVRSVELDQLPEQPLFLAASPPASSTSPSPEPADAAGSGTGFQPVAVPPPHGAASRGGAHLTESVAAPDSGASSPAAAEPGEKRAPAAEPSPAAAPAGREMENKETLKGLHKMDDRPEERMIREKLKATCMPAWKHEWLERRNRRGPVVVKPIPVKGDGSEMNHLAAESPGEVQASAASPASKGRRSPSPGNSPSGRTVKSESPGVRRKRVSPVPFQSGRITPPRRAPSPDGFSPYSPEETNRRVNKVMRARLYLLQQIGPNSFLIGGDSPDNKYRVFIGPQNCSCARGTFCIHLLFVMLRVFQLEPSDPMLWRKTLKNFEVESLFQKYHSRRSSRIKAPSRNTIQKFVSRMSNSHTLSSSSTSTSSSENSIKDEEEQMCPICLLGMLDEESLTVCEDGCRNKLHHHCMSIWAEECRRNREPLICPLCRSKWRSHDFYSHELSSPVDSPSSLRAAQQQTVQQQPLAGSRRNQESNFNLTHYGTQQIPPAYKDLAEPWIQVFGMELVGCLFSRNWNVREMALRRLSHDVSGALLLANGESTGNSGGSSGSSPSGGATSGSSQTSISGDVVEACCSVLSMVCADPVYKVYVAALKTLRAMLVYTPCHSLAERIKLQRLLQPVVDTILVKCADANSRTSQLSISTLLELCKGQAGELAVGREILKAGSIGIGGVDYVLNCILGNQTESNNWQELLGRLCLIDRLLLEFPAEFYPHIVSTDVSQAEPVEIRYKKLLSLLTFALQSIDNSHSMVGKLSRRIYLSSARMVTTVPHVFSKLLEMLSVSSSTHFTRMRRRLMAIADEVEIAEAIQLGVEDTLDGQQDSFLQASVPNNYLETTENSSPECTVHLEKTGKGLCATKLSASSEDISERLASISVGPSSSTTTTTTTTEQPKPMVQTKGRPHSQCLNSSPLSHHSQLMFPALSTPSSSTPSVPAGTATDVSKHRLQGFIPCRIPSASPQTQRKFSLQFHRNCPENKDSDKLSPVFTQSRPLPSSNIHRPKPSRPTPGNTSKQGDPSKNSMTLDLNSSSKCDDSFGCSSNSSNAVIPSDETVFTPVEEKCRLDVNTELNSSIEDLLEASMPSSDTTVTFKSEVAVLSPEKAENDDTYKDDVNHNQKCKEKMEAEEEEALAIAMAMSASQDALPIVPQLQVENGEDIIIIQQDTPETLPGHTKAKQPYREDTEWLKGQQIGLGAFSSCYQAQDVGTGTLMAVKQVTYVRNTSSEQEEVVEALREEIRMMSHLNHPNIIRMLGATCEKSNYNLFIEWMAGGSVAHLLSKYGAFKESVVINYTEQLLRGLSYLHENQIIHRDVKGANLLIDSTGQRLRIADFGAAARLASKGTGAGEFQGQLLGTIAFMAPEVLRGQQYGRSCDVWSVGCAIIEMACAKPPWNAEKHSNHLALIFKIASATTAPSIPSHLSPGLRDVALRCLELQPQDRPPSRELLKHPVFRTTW
Sequence of FLT1 (human) (P17948 whole entry, looked up): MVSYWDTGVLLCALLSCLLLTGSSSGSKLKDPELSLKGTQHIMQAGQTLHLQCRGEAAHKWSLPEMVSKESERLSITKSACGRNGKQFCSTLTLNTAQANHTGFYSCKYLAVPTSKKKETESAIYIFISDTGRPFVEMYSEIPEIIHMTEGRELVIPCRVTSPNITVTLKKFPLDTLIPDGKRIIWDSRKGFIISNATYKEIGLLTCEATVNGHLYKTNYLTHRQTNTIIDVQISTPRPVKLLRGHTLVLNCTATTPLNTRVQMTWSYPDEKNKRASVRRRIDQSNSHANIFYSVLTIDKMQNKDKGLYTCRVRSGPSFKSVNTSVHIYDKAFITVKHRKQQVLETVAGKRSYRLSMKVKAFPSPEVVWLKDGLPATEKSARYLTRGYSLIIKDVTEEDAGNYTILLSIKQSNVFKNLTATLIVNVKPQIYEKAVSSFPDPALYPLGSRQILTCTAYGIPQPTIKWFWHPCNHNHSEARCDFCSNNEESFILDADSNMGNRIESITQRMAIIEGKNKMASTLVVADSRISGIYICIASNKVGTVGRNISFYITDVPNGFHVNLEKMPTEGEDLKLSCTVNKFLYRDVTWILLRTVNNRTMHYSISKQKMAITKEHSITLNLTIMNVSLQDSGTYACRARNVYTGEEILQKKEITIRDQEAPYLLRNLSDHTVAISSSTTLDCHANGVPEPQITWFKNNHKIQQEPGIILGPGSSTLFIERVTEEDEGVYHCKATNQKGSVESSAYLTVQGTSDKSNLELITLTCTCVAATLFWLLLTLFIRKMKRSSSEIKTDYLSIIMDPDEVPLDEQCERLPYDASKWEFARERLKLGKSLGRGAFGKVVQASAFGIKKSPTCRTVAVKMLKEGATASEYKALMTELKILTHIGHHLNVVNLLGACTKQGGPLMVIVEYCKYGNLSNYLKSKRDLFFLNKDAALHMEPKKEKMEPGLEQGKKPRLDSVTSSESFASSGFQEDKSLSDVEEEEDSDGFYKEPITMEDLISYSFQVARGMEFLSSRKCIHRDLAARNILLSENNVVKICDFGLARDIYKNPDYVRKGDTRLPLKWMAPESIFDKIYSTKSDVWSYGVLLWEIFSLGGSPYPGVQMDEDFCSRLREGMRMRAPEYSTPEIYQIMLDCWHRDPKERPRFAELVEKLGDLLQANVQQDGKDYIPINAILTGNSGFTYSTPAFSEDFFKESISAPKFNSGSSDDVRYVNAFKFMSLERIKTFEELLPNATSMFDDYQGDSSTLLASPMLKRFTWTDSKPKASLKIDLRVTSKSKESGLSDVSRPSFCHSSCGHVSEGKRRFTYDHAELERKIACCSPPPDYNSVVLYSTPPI
Sequence of MAPK1 (human) (P28482 whole entry, looked up): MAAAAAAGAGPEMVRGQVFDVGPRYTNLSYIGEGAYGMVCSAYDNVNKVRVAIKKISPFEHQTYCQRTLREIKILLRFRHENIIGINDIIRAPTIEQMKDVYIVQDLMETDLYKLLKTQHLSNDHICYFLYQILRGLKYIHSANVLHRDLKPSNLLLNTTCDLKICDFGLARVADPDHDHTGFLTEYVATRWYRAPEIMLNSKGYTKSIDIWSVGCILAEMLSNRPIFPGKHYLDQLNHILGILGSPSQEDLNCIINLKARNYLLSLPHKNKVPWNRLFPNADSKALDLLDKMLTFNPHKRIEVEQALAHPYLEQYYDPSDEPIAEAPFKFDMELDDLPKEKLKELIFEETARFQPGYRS
Sequence of SGK1 (human), O00141 [S422D] (O00141 whole entry S422D, looked up): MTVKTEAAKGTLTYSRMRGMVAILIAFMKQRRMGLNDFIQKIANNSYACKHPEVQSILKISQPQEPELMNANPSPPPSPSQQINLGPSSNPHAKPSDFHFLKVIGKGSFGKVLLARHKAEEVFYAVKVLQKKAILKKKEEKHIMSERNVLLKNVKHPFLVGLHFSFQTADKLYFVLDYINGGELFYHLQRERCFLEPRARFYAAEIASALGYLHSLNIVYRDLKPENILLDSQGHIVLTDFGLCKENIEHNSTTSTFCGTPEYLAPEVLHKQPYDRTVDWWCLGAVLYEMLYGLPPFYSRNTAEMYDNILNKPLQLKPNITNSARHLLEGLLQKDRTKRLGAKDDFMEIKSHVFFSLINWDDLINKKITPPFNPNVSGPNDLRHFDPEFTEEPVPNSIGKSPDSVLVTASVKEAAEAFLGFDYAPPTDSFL

Compound `Cc1ccc(=O)n(-c2ccccc2)c1` has a residual activity (NTRK1 (human); compound 1.0 µM) of 103%, a residual activity (NTRK1 (human); compound 10.0 µM) of 112% and a residual activity (MARK4 (human); compound 10.0 µM) of 74%. It also gave a residual activity (TAOK1 (human); compound 1.0 µM) of 118%, a residual activity (TAOK1 (human); compound 10.0 µM) of 100% and a residual activity (CHEK2 (human); compound 1.0 µM) of 119%. For the same compound, the residual activity (CHEK2 (human); compound 10.0 µM) was 97%, the residual activity (SRC (human); compound 1.0 µM) was 123% and the residual activity (SRC (human); compound 10.0 µM) was 102%. For the same compound, the residual activity (RPS6KA3 KD1 KD2 (human); compound 1.0 µM) was 98%, the residual activity (RPS6KA3 KD1 KD2 (human); compound 10.0 µM) was 94% and the residual activity (CDK2 CCNA2 (human); compound 1.0 µM) was 103%. For the same compound, the residual activity (CDK2 CCNA2 (human); compound 10.0 µM) was 97%, the residual activity (HIPK1 (human); compound 1.0 µM) was 118% and the residual activity (HIPK1 (human); compound 10.0 µM) was 103%. For the same compound, the residual activity (STK3 (human); compound 1.0 µM) was 112%, the residual activity (STK3 (human); compound 10.0 µM) was 112% and the residual activity (CLK2 (human); compound 1.0 µM) was 120%. For the same compound, the residual activity (CLK2 (human); compound 10.0 µM) was 112%, the residual activity (RPS6KA5 KD1 KD2 (human); compound 1.0 µM) was 98% and the residual activity (RPS6KA5 KD1 KD2 (human); compound 10.0 µM) was 95%. For the same compound, the residual activity (NUAK1 (human); compound 1.0 µM) was 115%, the residual activity (NUAK1 (human); compound 10.0 µM) was 100% and the residual activity (PLK1 (human); compound 1.0 µM) was 96%. The residual activity (PLK1 (human); compound 10.0 µM) was 82%, the residual activity (MST4 (human); compound 1.0 µM) was 105% and the residual activity (MST4 (human); compound 10.0 µM) was 102%. For the same compound, the residual activity (EEF2K (human); compound 1.0 µM) was 83%, the residual activity (EEF2K (human); compound 10.0 µM) was 87% and the residual activity (RPS6KA1 KD1 KD2 (human); compound 1.0 µM) was 107%. It also gave a residual activity (RPS6KA1 KD1 KD2 (human); compound 10.0 µM) of 114%, a residual activity (HIPK3 (human); compound 1.0 µM) of 100% and a residual activity (HIPK3 (human); compound 10.0 µM) of 96%. It also gave a residual activity (MAP3K1 (human); compound 1.0 µM) of 106%, a residual activity (MAP3K1 (human); compound 10.0 µM) of 103% and a residual activity (FLT1 (human); compound 1.0 µM) of 100%. The residual activity (FLT1 (human); compound 10.0 µM) was 107%, the residual activity (MAPK1 (human); compound 1.0 µM) was 95% and the residual activity (MAPK1 (human); compound 10.0 µM) was 97%. For the same compound, the residual activity (MAP3K5 (human); compound 10.0 µM) was 99%, the residual activity (JAK2 JH1 JH2 (human); compound 1.0 µM) was 103% and the residual activity (JAK2 JH1 JH2 (human); compound 10.0 µM) was 90%. It also gave a residual activity (ERBB4 (human); compound 10.0 µM) of 106%, a residual activity (PRKCZ (human); compound 1.0 µM) of 109% and a residual activity (PRKCZ (human); compound 10.0 µM) of 97%. For the same compound, the residual activity (MARK3 (human); compound 1.0 µM) was 108%, the residual activity (MARK3 (human); compound 10.0 µM) was 108% and the residual activity (GCK (human); compound 1.0 µM) was 106%. For the same compound, the residual activity (GCK (human); compound 10.0 µM) was 108%, the residual activity (PAK6 (human); compound 1.0 µM) was 106% and the residual activity (PAK6 (human); compound 10.0 µM) was 96%. The residual activity (EPHB4 (human); compound 1.0 µM) was 112%, the residual activity (EPHB4 (human); compound 10.0 µM) was 120% and the residual activity (DAPK1 (human); compound 1.0 µM) was 112%. For the same compound, the residual activity (DAPK1 (human); compound 10.0 µM) was 100%, the residual activity (MAPK3 (human); compound 1.0 µM) was 125% and the residual activity (MAPK3 (human); compound 10.0 µM) was 115%. The residual activity (CHEK1 (human); compound 1.0 µM) was 97%, the residual activity (CHEK1 (human); compound 10.0 µM) was 90% and the residual activity ([1]; compound 1.0 µM) was 113%. For the same compound, the residual activity ([1]; compound 10.0 µM) was 100%, the residual activity (PRKCA (human); compound 10.0 µM) was 118% and the residual activity (AURKA (human); compound 1.0 µM) was 106%. The residual activity (AURKA (human); compound 10.0 µM) was 107%, the residual activity (BRSK2 (human); compound 1.0 µM) was 106% and the residual activity (BRSK2 (human); compound 10.0 µM) was 96%.
`C=C1C(=O)OC2C1CC/C(C)=C/CCC1(C)OC21` (stereo unspecified) was tested, and the residual activity (NTRK1 (human); compound 1.0 µM) was 106%, the residual activity (NTRK1 (human); compound 5.0 µM) was 83% and the residual activity (MARK4 (human); compound 1.0 µM) was 111%. It also gave a residual activity (MARK4 (human); compound 5.0 µM) of 93%, a residual activity (TAOK1 (human); compound 5.0 µM) of 103% and a residual activity (CHEK2 (human); compound 1.0 µM) of 102%. For the same compound, the residual activity (CHEK2 (human); compound 5.0 µM) was 121%, the residual activity (SRC (human); compound 1.0 µM) was 110% and the residual activity (SRC (human); compound 5.0 µM) was 111%. For the same compound, the residual activity (RPS6KA3 KD1 KD2 (human); compound 1.0 µM) was 102%, the residual activity (RPS6KA3 KD1 KD2 (human); compound 5.0 µM) was 94% and the residual activity (CDK2 CCNA2 (human); compound 1.0 µM) was 93%. It also gave a residual activity (CDK2 CCNA2 (human); compound 5.0 µM) of 116%, a residual activity (HIPK1 (human); compound 1.0 µM) of 114% and a residual activity (HIPK1 (human); compound 5.0 µM) of 106%. It also gave a residual activity (STK3 (human); compound 1.0 µM) of 118%, a residual activity (STK3 (human); compound 5.0 µM) of 125% and a residual activity (CLK2 (human); compound 1.0 µM) of 90%. The residual activity (CLK2 (human); compound 5.0 µM) was 93%, the residual activity (RPS6KA5 KD1 KD2 (human); compound 1.0 µM) was 110% and the residual activity (RPS6KA5 KD1 KD2 (human); compound 5.0 µM) was 106%. The residual activity (NUAK1 (human); compound 1.0 µM) was 130%, the residual activity (NUAK1 (human); compound 5.0 µM) was 111% and the residual activity (PLK1 (human); compound 1.0 µM) was 103%. For the same compound, the residual activity (PLK1 (human); compound 5.0 µM) was 103%, the residual activity (MST4 (human); compound 1.0 µM) was 88% and the residual activity (MST4 (human); compound 5.0 µM) was 94%. It also gave a residual activity (EEF2K (human); compound 1.0 µM) of 107%, a residual activity (EEF2K (human); compound 5.0 µM) of 91% and a residual activity (RPS6KA1 KD1 KD2 (human); compound 1.0 µM) of 110%. It also gave a residual activity (RPS6KA1 KD1 KD2 (human); compound 5.0 µM) of 112%, a residual activity (HIPK3 (human); compound 1.0 µM) of 110% and a residual activity (HIPK3 (human); compound 5.0 µM) of 122%. For the same compound, the residual activity (MAP3K1 (human); compound 1.0 µM) was 112%, the residual activity (MAP3K1 (human); compound 5.0 µM) was 120% and the residual activity (FLT1 (human); compound 1.0 µM) was 109%. The residual activity (FLT1 (human); compound 5.0 µM) was 98%, the residual activity (MAPK1 (human); compound 1.0 µM) was 90% and the residual activity (MAPK1 (human); compound 5.0 µM) was 83%. For the same compound, the residual activity (MAP3K5 (human); compound 1.0 µM) was 98%, the residual activity (MAP3K5 (human); compound 5.0 µM) was 125% and the residual activity (JAK2 JH1 JH2 (human); compound 1.0 µM) was 116%. For the same compound, the residual activity (JAK2 JH1 JH2 (human); compound 5.0 µM) was 98%, the residual activity (ERBB4 (human); compound 1.0 µM) was 98% and the residual activity (ERBB4 (human); compound 5.0 µM) was 90%. It also gave a residual activity (PRKCZ (human); compound 1.0 µM) of 117%, a residual activity (PRKCZ (human); compound 5.0 µM) of 98% and a residual activity (MARK3 (human); compound 1.0 µM) of 123%. The residual activity (MARK3 (human); compound 5.0 µM) was 98%, the residual activity (GCK (human); compound 1.0 µM) was 116% and the residual activity (GCK (human); compound 5.0 µM) was 98%. For the same compound, the residual activity (PAK6 (human); compound 1.0 µM) was 119%, the residual activity (PAK6 (human); compound 5.0 µM) was 115% and the residual activity (EPHB4 (human); compound 1.0 µM) was 124%. It also gave a residual activity (DAPK1 (human); compound 1.0 µM) of 102%, a residual activity (DAPK1 (human); compound 5.0 µM) of 107% and a residual activity (MAPK3 (human); compound 1.0 µM) of 105%. The residual activity (MAPK3 (human); compound 5.0 µM) was 103%, the residual activity (CHEK1 (human); compound 1.0 µM) was 123% and the residual activity (CHEK1 (human); compound 5.0 µM) was 98%. The residual activity ([1]; compound 5.0 µM) was 115%, the residual activity (PRKCA (human); compound 1.0 µM) was 108% and the residual activity (PRKCA (human); compound 5.0 µM) was 108%. For the same compound, the residual activity (AURKA (human); compound 5.0 µM) was 115% and the residual activity (BRSK2 (human); compound 1.0 µM) was 109%.
